Data taken from PubChem BioAssay AID588599 (Sanford-Burnham Center for Chemical Genomics, 2011).

target: Caspase-3 (Homo sapiens) (UniProt P42574); assay: caspase-3 inhibitors as off-family protease, SAR follow-up, selectivity assay for SENP protease inhibitor project, biochemical, luminescence, set 2 (AID 588599); conditions: recombinant caspase-3, Z-DEVD-aminoluciferin luminescence, 60 min
Sequence (P42574 28-227 limits assumed): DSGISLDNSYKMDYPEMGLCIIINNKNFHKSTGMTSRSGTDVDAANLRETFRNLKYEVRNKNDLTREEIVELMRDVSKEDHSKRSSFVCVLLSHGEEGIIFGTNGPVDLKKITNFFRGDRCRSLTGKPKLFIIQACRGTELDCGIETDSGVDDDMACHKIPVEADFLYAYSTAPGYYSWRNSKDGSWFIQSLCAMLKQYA

IC50 [µM] | SMILES
23.9 | Fc1ccc(/C=C/c2noc(-c3ccccc3I)n2)cc1
1.11 | CCCCc1ccc2nc(NC(=O)c3sccc3Cl)sc2c1
0.515 | O=C(Nc1nc2ccccc2s1)c1cc2ccccc2s1
10.6 | Cc1cccc(-c2noc(/C=C/c3ccccc3)n2)c1
